Assay results published in ChEMBL document CHEMBL4359931, “Synthesis, biological evaluation and molecular docking studies of new amides of 4-bromothiocolchicine as anticancer agents” (Bioorg Med Chem, 2019).
Active and inactive are the calls of the source. The calls are words filed in the database; no cut-off is given here.

Experiments:
[1] = Antiproliferative activity against human ALL5 cells assessed as reduction in cell viability incubated for 120 hrs by MTT assay; format: functional, cell-based; settings: ALL5, 120 h
[2] = Cell cycle arrest in human ALL5 cells assessed as accumulation in G2 phase at 5 times of antiproliferative IC50 incubated for 24 hrs by propidium iodide based flow cytometry (reference value: 10.6 %); format: functional
[3] = Cell cycle arrest in human ALL5 cells assessed as accumulation in G2 phase at 5 times of antiproliferative IC50 incubated for 48 hrs by propidium iodide based flow cytometry (reference value: 11.2 %); format: functional
[4] = Cell cycle arrest in human ALL5 cells assessed as accumulation in G2 phase at 5 times of antiproliferative IC50 incubated for 72 hrs by propidium iodide based flow cytometry (reference value: 11.3 %); format: functional
[5] = Cell cycle arrest in human ALL5 cells assessed as accumulation in G1 phase at 5 times of antiproliferative IC50 incubated for 24 hrs by propidium iodide based flow cytometry (reference value: 68.1 %); format: functional
[6] = Cell cycle arrest in human ALL5 cells assessed as accumulation in G1 phase at 5 times of antiproliferative IC50 incubated for 48 hrs by propidium iodide based flow cytometry (reference value: 67.4 %); format: functional
[7] = Cell cycle arrest in human ALL5 cells assessed as accumulation in G1 phase at 5 times of antiproliferative IC50 incubated for 72 hrs by propidium iodide based flow cytometry (reference value: 59.7 %); format: functional
[8] = Cell cycle arrest in human ALL5 cells assessed as accumulation in subG1 phase at 5 times of antiproliferative IC50 incubated for 24 hrs by propidium iodide based flow cytometry (reference value: 10.5 %); format: functional
[9] = Cell cycle arrest in human ALL5 cells assessed as accumulation in subG1 phase at 5 times of antiproliferative IC50 incubated for 48 hrs by propidium iodide based flow cytometry (reference value: 11 %); format: functional
[10] = Cell cycle arrest in human ALL5 cells assessed as accumulation in subG1 phase at 5 times of antiproliferative IC50 incubated for 72 hrs by propidium iodide based flow cytometry (reference value: 15.5 %); format: functional
MCF7 [11] = assay: Cell cycle arrest in human MCF7 cells assessed as accumulation in G2 phase at 5 times of antiproliferative IC50 incubated for 24 hrs by propidium iodide based flow cytometry (reference value: 22.4 %); format: functional
MCF7 [12] = assay: Cell cycle arrest in human MCF7 cells assessed as accumulation in G2 phase at 5 times of antiproliferative IC50 incubated for 48 hrs by propidium iodide based flow cytometry (reference value: 16 %); format: functional
MCF7 [13] = assay: Cell cycle arrest in human MCF7 cells assessed as accumulation in G2 phase at 5 times of antiproliferative IC50 incubated for 72 hrs by propidium iodide based flow cytometry (reference value: 18.6 %); format: functional
MCF7 [14] = assay: Cell cycle arrest in human MCF7 cells assessed as accumulation in G1 phase at 5 times of antiproliferative IC50 incubated for 24 hrs by propidium iodide based flow cytometry (reference value: 49.9 %); format: functional
MCF7 [15] = assay: Cell cycle arrest in human MCF7 cells assessed as accumulation in G1 phase at 5 times of antiproliferative IC50 incubated for 48 hrs by propidium iodide based flow cytometry (reference value: 40.8 %); format: functional
MCF7 [16] = assay: Cell cycle arrest in human MCF7 cells assessed as accumulation in G1 phase at 5 times of antiproliferative IC50 incubated for 72 hrs by propidium iodide based flow cytometry (reference value: 58 %); format: functional
MCF7 [17] = assay: Cell cycle arrest in human MCF7 cells assessed as accumulation in subG1 phase at 5 times of antiproliferative IC50 incubated for 24 hrs by propidium iodide based flow cytometry (reference value: 7.79 %); format: functional
MCF7 [18] = assay: Cell cycle arrest in human MCF7 cells assessed as accumulation in subG1 phase at 5 times of antiproliferative IC50 incubated for 48 hrs by propidium iodide based flow cytometry (reference value: 9.19 %); format: functional
MCF7 [19] = assay: Cell cycle arrest in human MCF7 cells assessed as accumulation in subG1 phase at 5 times of antiproliferative IC50 incubated for 72 hrs by propidium iodide based flow cytometry (reference value: 3.59 %); format: functional
MCF7 [20] = assay: Cell cycle arrest in human MCF7 cells assessed as accumulation in S phase at 5 times of antiproliferative IC50 incubated for 24 hrs by propidium iodide based flow cytometry (reference value: 19.9 %); format: functional
MCF7 [21] = assay: Cell cycle arrest in human MCF7 cells assessed as accumulation in S phase at 5 times of antiproliferative IC50 incubated for 48 hrs by propidium iodide based flow cytometry (reference value: 34 %); format: functional
MCF7 [22] = assay: Cell cycle arrest in human MCF7 cells assessed as accumulation in S phase at 5 times of antiproliferative IC50 incubated for 72 hrs by propidium iodide based flow cytometry (reference value: 19.8 %); format: functional
[23] = Cell cycle arrest in human ALL5 cells assessed as accumulation in S phase at 5 times of antiproliferative IC50 incubated for 24 hrs by propidium iodide based flow cytometry (reference value: […]); format: functional
[24] = Cell cycle arrest in human ALL5 cells assessed as accumulation in S phase at 5 times of antiproliferative IC50 incubated for 48 hrs by propidium iodide based flow cytometry (reference value: 10.3 %); format: functional
[25] = Cell cycle arrest in human ALL5 cells assessed as accumulation in S phase at 5 times of antiproliferative IC50 incubated for 72 hrs by propidium iodide based flow cytometry (reference value: 13.5 %); format: functional
Homo sapiens [26] = species on record: Homo sapiens; assay: Induction of apoptosis in human ALL5 cells assessed as reduction in 116 kDa PARP expression at 43 uM incubated for 24 and 48 hrs by immunoblot analysis; format: functional, cell-based
Homo sapiens [27] = species on record: Homo sapiens; assay: Induction of apoptosis in human ALL5 cells assessed as increase in 85 kDa PARP expression at 43 uM incubated for 48 hrs by immunoblot analysis; format: functional, cell-based
Homo sapiens [28] = species on record: Homo sapiens; assay: Induction of cell cycle arrest in human ALL5 cells assessed as increase in 4 N DNA at 5 times of antiproliferative IC50 incubated for 24 hrs by propidium iodide based flow cytometry; format: functional
Homo sapiens [29] = species on record: Homo sapiens; assay: Induction of cell cycle arrest in human ALL5 cells assessed as increase in 4 N DNA at 5 times of antiproliferative IC50 incubated for 48 hrs by propidium iodide based flow cytometry; format: functional
Homo sapiens [30] = species on record: Homo sapiens; assay: Induction of cell death in human ALL5 cells assessed as decrease in 4 N DNA at 5 times of antiproliferative IC50 incubated for 72 hrs by propidium iodide based flow cytometry; format: functional

COc1cc2c(c(OC)c1OC)-c1ccc(OC)c(=O)cc1[C@@H](NC(C)=O)CC2 [COLCHICINE]
IC50 [1]: 8.6 nM
Activity [2]: 14.4%
Activity [3]: 22.3%
Activity [4]: 9.05%
Activity [5]: 54%
Activity [6]: 33.2%
Activity [7]: 21.7%
Activity [8]: 19.7%
Activity [9]: 27.4%
Activity [10]: 52.1%
Activity (MCF7 [11]): 72.2%
Activity (MCF7 [12]): 68.3%
Activity (MCF7 [13]): 64%
Activity (MCF7 [14]): 9.33%
Activity (MCF7 [15]): 14.5%
Activity (MCF7 [16]): 16%
Activity (MCF7 [17]): 5.51%
Activity (MCF7 [18]): 9.33%
Activity (MCF7 [19]): 12.6%
Activity (MCF7 [20]): 13%
Activity (MCF7 [21]): 7.86%
Activity (MCF7 [22]): 7.4%
Activity [23]: 12%
Activity [24]: 17.1%
Activity [25]: 17.1%
Activity (Homo sapiens [26]): Active
Activity (Homo sapiens [27]): Active
Activity (Homo sapiens [28]): Active
Activity (Homo sapiens [29]): Active
Activity (Homo sapiens [30]): Active
